The target in one experiment is MKK2 (Homo sapiens, UniProt P36507). Put plainly: Kinase profiling MKK2. The class given is biochemical. Particulars: 100 micromolar inhibitor concentration, 100 is no change; for remaining activity at 100 µM: read-out: residual kinase activity, MKK2. The source says:
(§1) Any value less that 25 is considered to be highly significant inhibition.

A further experiment has as its target ERK1 (Homo sapiens, UniProt P27361). Put plainly: Kinase profiling ERK1. The class given is biochemical. Particulars: 100 micromolar inhibitor concentration, 100 is no change; for remaining activity at 100 µM: read-out: residual kinase activity, ERK1.
From the text: as §1

In the next experiment the target is JNK1 (Homo sapiens, UniProt P45983). The experiment can be described thus: Kinase profiling JNK1. The class given is biochemical. Particulars: 100 micromolar inhibitor concentration, 100 is no change; for remaining activity at 100 µM: read-out: residual kinase activity, JNK1.
From the text: as §1

Another experiment has as its target PKBb (Homo sapiens, UniProt P31751). Put plainly: Kinase profiling PKBb. Particulars: for remaining activity at 100 µM: read-out: residual kinase activity, PKBb; for residual kinase activity, PKBb: 100 micromolar inhibitor concentration, 100 is no change. The class given is biochemical.
From the text: as §1

The target of a further experiment is T1, SGK1 (Homo sapiens, UniProt O00141).
T1 sequence (O00141 1-431): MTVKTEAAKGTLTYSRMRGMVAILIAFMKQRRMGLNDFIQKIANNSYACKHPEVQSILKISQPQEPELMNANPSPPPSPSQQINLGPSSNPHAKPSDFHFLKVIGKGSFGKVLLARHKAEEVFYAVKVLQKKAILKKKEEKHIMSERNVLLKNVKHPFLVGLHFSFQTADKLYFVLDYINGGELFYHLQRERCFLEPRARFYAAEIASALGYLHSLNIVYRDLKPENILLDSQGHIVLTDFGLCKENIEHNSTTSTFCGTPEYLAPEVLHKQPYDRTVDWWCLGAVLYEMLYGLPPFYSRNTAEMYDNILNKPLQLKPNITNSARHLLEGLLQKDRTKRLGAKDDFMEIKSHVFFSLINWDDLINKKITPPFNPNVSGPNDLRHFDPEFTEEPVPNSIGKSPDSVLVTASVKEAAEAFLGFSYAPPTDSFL
The experiment can be described thus: Kinase profiling SGK1. The settings on record: 100 micromolar inhibitor concentration, 100 is no change; for remaining activity at 100 µM: read-out: residual kinase activity, SGK1. The class given is biochemical.
From the text: as §1

The target of the next experiment is T2, PKCz (Homo sapiens, UniProt Q05513).
T2 sequence (Q05513 1-592): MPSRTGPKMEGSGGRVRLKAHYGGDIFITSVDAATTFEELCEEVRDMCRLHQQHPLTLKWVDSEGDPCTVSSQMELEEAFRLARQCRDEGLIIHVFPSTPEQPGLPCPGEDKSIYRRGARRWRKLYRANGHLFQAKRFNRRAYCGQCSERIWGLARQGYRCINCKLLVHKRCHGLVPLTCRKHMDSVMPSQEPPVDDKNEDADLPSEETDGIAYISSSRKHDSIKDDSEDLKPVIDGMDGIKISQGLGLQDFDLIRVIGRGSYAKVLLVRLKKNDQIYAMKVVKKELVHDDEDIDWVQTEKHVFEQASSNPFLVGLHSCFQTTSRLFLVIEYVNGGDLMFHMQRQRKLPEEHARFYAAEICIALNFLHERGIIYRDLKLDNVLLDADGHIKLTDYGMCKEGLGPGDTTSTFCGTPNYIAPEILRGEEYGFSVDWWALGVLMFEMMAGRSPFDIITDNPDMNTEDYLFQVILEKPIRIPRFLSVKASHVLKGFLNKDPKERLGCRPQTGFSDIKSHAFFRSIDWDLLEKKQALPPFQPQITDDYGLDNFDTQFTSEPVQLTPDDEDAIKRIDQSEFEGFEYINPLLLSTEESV
The experiment can be described thus: Kinase profiling PKCz. The class given is biochemical. The settings on record: 100 micromolar inhibitor concentration, 100 is no change; for remaining activity at 100 µM: read-out: residual kinase activity, PKCz.
From the text: as §1

In another experiment the target is CAMK1 (Homo sapiens, UniProt Q14012). The experiment can be described thus: Kinase profiling CAMK1. The class given is biochemical. The settings on record: 100 micromolar inhibitor concentration, 100 is no change; for remaining activity at 100 µM: read-out: residual kinase activity, CAMK1.
From the text: as §1

In the next experiment the target is T3, LKB1 (Homo sapiens, UniProt Q15831).
T3 sequence (Q15831 1-433): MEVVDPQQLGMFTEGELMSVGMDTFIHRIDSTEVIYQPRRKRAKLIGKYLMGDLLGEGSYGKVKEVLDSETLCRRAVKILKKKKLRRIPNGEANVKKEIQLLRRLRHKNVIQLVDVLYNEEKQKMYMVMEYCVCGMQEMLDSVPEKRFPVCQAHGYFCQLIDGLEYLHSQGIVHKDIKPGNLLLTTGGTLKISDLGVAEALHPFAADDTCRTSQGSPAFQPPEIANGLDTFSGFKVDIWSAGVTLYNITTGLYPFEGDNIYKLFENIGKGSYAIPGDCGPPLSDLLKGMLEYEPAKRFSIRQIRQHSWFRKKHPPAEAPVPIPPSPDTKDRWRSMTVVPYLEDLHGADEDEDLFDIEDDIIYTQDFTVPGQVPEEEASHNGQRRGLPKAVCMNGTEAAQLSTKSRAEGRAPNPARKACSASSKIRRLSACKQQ
T3 sequence (Q7RTN6 1-431 partner): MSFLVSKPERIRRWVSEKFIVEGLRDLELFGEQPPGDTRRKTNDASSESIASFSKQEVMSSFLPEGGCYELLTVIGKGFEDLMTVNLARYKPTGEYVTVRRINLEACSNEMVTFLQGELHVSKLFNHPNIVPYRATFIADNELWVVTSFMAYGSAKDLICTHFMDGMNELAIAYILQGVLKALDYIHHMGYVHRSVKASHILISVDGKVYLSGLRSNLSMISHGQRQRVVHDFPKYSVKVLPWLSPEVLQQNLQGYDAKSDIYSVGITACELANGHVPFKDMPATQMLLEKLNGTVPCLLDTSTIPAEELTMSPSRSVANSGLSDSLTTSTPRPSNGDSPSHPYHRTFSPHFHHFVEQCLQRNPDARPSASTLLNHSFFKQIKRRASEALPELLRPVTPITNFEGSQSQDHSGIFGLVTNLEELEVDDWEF
T3 sequence (Q9Y376 1-341 partner): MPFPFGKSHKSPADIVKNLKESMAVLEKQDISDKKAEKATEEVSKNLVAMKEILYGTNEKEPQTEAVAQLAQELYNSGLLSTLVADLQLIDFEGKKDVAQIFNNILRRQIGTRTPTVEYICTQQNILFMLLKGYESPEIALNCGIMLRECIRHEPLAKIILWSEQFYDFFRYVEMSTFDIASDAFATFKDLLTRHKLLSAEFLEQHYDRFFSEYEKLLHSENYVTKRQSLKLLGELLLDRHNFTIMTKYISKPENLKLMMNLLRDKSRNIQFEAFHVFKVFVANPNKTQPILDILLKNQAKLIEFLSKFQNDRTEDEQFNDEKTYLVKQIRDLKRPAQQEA
The experiment can be described thus: Kinase profiling LKB1. The class given is biochemical. Particulars: 100 micromolar inhibitor concentration, 100 is no change; for remaining activity at 100 µM: read-out: residual kinase activity, LKB1.
From the text: as §1

Another experiment relates to AMPK (hum). The experiment can be described thus: Kinase profiling AMPK (hum). The class given is biochemical, human. The settings on record: 100 micromolar inhibitor concentration; 100 is no change.
From the text: as §1

The subject of another experiment is CK2. The experiment can be described thus: Kinase profiling CK2. The class given is biochemical. The settings on record: 100 micromolar inhibitor concentration; 100 is no change.
From the text: as §1

A further experiment has as its target SRPK1 (Homo sapiens, UniProt Q96SB4). The experiment can be described thus: Kinase profiling SRPK1. The class given is biochemical. The settings on record: 100 micromolar inhibitor concentration, 100 is no change; for remaining activity at 100 µM: read-out: residual kinase activity, SRPK1.
From the text: as §1

The target of a further experiment is MLK3 (Homo sapiens, UniProt Q16584). Put plainly: Kinase profiling MLK3. The class given is biochemical. The settings on record: 100 micromolar inhibitor concentration, 100 is no change; for remaining activity at 100 µM: read-out: residual kinase activity, MLK3.
From the text: as §1

In another experiment the target is IGF-1R (Homo sapiens, UniProt P08069). Put plainly: Kinase profiling IGF-1R. The class given is biochemical. The settings on record: 100 micromolar inhibitor concentration, 100 is no change; for remaining activity at 100 µM: read-out: residual kinase activity, IGF-1R.
From the text: as §1

Structures are written as SMILES.

Sequence of MLK3 (Q16584 whole entry, species assumed): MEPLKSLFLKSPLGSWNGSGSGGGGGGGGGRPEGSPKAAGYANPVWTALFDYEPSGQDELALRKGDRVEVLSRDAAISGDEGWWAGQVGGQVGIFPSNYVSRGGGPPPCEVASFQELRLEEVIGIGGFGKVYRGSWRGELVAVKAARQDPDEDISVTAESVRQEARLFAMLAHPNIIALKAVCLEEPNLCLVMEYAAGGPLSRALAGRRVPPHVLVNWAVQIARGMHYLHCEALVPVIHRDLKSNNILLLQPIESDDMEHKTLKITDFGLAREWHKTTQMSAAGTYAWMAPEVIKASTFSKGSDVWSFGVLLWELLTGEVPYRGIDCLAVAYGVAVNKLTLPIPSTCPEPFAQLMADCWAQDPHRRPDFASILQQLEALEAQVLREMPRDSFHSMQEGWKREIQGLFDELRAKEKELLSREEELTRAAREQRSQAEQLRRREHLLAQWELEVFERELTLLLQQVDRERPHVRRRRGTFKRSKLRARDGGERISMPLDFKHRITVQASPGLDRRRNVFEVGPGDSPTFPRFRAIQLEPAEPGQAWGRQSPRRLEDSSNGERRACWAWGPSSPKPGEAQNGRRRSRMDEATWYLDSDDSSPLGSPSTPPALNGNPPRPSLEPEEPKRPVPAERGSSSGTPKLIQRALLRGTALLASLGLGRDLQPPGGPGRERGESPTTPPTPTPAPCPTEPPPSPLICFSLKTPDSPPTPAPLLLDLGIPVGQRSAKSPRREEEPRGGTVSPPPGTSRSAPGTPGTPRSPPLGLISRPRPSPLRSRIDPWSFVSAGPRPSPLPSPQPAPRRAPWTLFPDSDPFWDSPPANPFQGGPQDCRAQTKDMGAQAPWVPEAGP
Sequence of ERK1 (P27361 whole entry, species assumed): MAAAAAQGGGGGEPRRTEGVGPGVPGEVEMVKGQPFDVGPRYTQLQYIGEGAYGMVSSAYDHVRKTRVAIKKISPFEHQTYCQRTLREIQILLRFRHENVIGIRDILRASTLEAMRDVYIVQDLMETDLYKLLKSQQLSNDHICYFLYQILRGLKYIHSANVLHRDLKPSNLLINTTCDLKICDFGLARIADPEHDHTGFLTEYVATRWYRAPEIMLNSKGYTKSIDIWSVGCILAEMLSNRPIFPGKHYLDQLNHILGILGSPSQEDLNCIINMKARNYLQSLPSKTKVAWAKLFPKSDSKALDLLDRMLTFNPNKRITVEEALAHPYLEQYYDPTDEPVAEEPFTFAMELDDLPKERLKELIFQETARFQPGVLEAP
Sequence of MKK2 (P36507 whole entry, species assumed): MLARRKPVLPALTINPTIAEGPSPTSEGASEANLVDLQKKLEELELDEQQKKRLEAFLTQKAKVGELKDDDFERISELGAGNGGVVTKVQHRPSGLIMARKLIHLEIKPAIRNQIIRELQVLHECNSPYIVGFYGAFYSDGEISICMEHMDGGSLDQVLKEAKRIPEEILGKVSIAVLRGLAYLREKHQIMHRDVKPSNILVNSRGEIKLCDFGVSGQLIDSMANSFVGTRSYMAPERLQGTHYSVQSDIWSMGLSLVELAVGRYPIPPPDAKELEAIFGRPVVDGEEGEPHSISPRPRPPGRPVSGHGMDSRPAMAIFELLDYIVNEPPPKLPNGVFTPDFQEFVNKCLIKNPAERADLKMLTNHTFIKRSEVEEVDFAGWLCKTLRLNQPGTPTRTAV
Sequence of CAMK1 (Q14012 whole entry, species assumed): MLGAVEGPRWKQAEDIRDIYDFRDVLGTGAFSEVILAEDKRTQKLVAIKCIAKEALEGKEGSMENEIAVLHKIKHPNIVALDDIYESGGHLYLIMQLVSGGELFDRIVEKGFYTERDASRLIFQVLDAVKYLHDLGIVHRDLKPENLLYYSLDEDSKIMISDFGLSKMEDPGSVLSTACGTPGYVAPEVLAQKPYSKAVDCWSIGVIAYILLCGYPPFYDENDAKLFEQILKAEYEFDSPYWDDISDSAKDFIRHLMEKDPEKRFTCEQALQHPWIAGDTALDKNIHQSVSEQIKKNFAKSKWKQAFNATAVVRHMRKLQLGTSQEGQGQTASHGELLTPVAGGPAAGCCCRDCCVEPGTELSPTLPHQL
Sequence of JNK1 (P45983 whole entry, species assumed): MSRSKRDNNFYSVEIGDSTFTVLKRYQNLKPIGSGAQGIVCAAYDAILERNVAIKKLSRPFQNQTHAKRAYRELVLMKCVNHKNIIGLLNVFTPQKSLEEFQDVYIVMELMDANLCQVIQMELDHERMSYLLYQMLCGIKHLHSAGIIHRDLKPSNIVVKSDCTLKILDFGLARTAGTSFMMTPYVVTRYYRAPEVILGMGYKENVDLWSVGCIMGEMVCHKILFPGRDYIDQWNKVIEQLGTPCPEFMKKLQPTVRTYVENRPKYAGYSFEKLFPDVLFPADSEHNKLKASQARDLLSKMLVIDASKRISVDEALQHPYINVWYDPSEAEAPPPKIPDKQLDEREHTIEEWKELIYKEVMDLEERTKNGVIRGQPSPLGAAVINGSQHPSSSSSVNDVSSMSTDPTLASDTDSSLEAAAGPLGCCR
Sequence of SRPK1 (Q96SB4 whole entry, species assumed): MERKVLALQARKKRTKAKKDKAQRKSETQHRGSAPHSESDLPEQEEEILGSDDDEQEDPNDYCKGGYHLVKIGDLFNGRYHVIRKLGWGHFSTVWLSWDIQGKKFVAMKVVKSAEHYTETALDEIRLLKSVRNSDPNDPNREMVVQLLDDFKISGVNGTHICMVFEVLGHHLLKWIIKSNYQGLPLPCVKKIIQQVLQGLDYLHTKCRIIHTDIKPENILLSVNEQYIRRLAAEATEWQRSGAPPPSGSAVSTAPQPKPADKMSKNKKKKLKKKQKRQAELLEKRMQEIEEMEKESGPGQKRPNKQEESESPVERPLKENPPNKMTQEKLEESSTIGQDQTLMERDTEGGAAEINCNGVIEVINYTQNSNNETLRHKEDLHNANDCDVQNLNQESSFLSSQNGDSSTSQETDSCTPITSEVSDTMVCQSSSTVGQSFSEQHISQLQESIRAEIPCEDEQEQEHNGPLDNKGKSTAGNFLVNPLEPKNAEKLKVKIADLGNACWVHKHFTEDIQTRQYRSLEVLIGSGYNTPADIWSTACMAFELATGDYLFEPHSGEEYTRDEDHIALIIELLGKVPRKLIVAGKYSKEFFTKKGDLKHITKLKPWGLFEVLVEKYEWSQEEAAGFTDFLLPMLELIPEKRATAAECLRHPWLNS
Sequence of IGF-1R (P08069 31-1367, species assumed): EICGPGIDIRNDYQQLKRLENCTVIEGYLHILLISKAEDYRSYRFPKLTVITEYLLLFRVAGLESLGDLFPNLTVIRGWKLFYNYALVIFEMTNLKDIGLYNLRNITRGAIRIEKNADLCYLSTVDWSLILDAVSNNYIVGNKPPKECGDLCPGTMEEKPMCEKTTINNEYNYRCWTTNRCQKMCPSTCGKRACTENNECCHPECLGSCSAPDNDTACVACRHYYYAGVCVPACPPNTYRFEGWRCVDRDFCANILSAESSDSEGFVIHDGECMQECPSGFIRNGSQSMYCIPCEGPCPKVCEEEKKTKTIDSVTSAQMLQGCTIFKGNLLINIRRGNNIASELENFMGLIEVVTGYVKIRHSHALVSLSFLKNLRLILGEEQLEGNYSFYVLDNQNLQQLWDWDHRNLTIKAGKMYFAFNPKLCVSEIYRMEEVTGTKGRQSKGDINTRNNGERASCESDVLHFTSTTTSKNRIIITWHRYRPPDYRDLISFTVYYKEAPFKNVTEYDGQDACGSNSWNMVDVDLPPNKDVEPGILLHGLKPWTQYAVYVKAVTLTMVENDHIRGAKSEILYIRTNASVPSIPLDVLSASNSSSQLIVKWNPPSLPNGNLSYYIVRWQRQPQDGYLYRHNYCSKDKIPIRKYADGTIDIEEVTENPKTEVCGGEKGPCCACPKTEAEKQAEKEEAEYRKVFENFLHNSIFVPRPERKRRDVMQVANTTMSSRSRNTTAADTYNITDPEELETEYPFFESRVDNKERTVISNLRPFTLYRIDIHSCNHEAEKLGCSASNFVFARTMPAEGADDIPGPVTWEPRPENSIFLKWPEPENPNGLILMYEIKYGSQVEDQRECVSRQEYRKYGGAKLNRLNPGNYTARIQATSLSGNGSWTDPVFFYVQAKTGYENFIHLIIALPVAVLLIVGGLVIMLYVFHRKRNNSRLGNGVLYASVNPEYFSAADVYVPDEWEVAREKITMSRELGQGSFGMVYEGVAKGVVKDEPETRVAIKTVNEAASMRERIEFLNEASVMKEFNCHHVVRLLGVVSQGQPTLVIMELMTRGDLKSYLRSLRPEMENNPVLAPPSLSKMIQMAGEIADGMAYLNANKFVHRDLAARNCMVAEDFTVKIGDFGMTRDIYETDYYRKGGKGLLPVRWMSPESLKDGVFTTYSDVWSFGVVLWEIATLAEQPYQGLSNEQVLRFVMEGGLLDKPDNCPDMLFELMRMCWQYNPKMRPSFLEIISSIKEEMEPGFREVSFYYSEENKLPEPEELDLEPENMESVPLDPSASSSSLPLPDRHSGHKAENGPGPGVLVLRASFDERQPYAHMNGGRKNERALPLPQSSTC
Sequence of PKBb (P31751 whole entry): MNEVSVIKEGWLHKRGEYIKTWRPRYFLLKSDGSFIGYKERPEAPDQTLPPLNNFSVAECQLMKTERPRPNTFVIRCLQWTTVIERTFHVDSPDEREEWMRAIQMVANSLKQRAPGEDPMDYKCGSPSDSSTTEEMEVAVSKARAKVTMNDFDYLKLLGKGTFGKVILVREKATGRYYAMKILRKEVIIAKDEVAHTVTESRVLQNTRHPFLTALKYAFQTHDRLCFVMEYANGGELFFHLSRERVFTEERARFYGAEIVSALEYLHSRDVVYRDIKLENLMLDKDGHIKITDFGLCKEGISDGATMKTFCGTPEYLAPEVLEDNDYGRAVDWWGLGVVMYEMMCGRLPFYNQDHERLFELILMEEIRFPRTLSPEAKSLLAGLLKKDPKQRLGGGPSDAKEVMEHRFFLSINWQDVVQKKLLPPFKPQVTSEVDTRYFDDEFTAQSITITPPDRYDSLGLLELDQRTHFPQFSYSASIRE

As for `CC(=O)Nc1nc2cc(C(F)(F)F)ccc2s1` [Compound 03-73], the remaining activity at 100 µM on MKK2 came out at 98%; at ERK1, 83%; at JNK1 it was 120%; on PKBb, 104%; on SGK1, 77%; at PKCz it was 97%. Moreover, the remaining activity at 100 µM is 89% on CAMK1; 98% at LKB1; 72% at SRPK1; 57% at MLK3; 77% at IGF-1R. Moreover, the “residual kinase activity, AMPK (hum)” value in the experiment on AMPK (hum) came out at 62. Moreover, the “residual kinase activity, CK2” value with CK2 is given as 105.
In the case of `CC(=O)Nc1nc2cc(C)ccc2s1` [Compound 03-76], on MKK2, the “residual kinase activity, MKK2” value was 155. In addition, the “residual kinase activity, ERK1” value at ERK1 was 91. In addition, the “residual kinase activity, JNK1” value at JNK1 is 97. In addition, on PKBb, the “residual kinase activity, PKBb” value is reported as 91. For the same compound, the “residual kinase activity, SGK1” value on SGK1 was 65. The “residual kinase activity, PKCz” value at PKCz stood at 101. For the same compound, at CAMK1, the “residual kinase activity, CAMK1” value stood at 90. For the same compound, on LKB1, the “residual kinase activity, LKB1” value was 96. The “residual kinase activity, AMPK (hum)” value in the experiment with AMPK (hum) came to 69. For the same compound, in the experiment on CK2, the “residual kinase activity, CK2” value came out at 75. Also, the “residual kinase activity, SRPK1” value on SRPK1 was 73. For the same compound, on MLK3, the “residual kinase activity, MLK3” value came out at 35. On IGF-1R, the “residual kinase activity, IGF-1R” value amounted to 75.
In the case of `CC(=O)Nc1nc2cc(F)ccc2s1` [Compound 03-77], the remaining activity at 100 µM at MKK2 was 101%; on ERK1, 90%; at JNK1, 80%; at PKBb, 93%; on SGK1 it was 66%; at PKCz it was 110%. Moreover, the remaining activity at 100 µM worked out at 106% on CAMK1; 85% on LKB1; 65% at SRPK1; 44% on MLK3; 58% at IGF-1R. Further, the “residual kinase activity, AMPK (hum)” value in the experiment on AMPK (hum) was found to be 80. Also, in the experiment on CK2, the “residual kinase activity, CK2” value was determined as 81.
With `O=C(Nc1nc2ccc(O)cc2s1)c1ccncc1` [Compound 08-42], the “residual kinase activity, MKK2” value at MKK2 is reported as 72. Besides, at ERK1, the “residual kinase activity, ERK1” value is reported as 84. In addition, the “residual kinase activity, JNK1” value at JNK1 is reported as 99. Also, the “residual kinase activity, PKBb” value on PKBb is on record as 52. Also, at SGK1, the “residual kinase activity, SGK1” value was 60. On PKCz, the “residual kinase activity, PKCz” value is recorded as 76. Besides, the “residual kinase activity, CAMK1” value on CAMK1 is listed as 68. In addition, on LKB1, the “residual kinase activity, LKB1” value is listed as 65. For the same compound, the “residual kinase activity, AMPK (hum)” value in the experiment with AMPK (hum) stood at 65. In the experiment on CK2, the “residual kinase activity, CK2” value turned out to be 50. Moreover, the “residual kinase activity, SRPK1” value at SRPK1 amounted to 19. The “residual kinase activity, MLK3” value at MLK3 is recorded as 30. Besides, on IGF-1R, the “residual kinase activity, IGF-1R” value was 88.
Regarding `O=C(Nc1nc2ccc(O)cc2s1)c1cccnc1` [Compound 08-44], the “residual kinase activity, MKK2” value at MKK2 was found to be 48. Further, at ERK1, the “residual kinase activity, ERK1” value was 81. The “residual kinase activity, JNK1” value on JNK1 stood at 102. Moreover, the “residual kinase activity, PKBb” value on PKBb amounted to 45. Moreover, the “residual kinase activity, SGK1” value at SGK1 is listed as 51. The “residual kinase activity, PKCz” value at PKCz is reported as 81. Also, on CAMK1, the “residual kinase activity, CAMK1” value stood at 42. In addition, on LKB1, the “residual kinase activity, LKB1” value is given as 45. Besides, the “residual kinase activity, AMPK (hum)” value in the experiment with AMPK (hum) is 55. Besides, in the experiment on CK2, the “residual kinase activity, CK2” value came to 19. For the same compound, the “residual kinase activity, SRPK1” value on SRPK1 is 16. On MLK3, the “residual kinase activity, MLK3” value is recorded as 26. The “residual kinase activity, IGF-1R” value at IGF-1R stood at 54.

The values are drawn from US10231954B2, “Neurodegenerative therapies” (LYTIX BIOPHARMA AS, priority 2014, dated 2019).
